Source: ChEMBL document CHEMBL1201862, “PubChem BioAssay data set” (2004)
Activity calls are given as the source filed them.

How the values were obtained:
HEK293 [1] = experiment: cells; type: functional, cell-based; details: Homo sapiens
[2] = molecular target: T1, Nuclear receptor subfamily 0 group B member 1 (Homo sapiens, UniProt P51843); experiment: Luminescence-based cell-based high throughput dose response assay for inhibitors of the orphan nuclear receptor subfamily 0, group B, member 1 (DAX1; NR0B1). [Related pubchem assays (depositor defined):AID504766, AID504790]; type: functional
T1 sequence (P51843 whole entry): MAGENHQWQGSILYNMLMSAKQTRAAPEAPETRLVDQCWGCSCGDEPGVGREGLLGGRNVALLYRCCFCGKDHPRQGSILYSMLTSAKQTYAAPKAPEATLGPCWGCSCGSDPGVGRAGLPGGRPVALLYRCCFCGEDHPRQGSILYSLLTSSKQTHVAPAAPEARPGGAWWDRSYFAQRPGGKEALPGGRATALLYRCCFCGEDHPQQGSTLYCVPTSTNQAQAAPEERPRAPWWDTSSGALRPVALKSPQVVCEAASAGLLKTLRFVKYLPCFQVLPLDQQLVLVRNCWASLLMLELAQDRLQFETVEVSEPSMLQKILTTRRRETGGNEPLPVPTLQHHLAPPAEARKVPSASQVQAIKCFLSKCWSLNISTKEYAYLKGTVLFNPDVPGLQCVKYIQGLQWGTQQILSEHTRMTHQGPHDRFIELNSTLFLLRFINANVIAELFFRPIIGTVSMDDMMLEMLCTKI

[3] = molecular target: UDP-galactopyranose mutase (Mycobacterium tuberculosis, UniProt P9WIQ1); experiment: Inhibitors of Mycobacterium tuberculosis UDP-galactopyranose mutase (UGM) enzyme Measured in Biochemical System Using Plate Reader - 2105-02_Inhibitor_Dose_CherryPick_Activity. [Related pubchem assays (depositor defined):AID504439]
UDP-galactopyranose mutase, sequence (P9WIQ1 whole entry): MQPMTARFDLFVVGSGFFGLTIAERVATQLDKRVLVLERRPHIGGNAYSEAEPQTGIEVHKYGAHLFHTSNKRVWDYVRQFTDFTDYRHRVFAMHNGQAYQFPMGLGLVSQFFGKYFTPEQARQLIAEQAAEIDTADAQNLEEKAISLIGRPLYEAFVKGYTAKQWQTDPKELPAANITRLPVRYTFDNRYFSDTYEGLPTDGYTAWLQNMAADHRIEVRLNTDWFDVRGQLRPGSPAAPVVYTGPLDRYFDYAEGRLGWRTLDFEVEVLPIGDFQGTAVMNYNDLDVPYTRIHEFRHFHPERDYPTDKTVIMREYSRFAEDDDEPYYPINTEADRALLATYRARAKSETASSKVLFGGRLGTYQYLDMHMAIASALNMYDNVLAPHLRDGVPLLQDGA

Beta-lactamase [4] = molecular target: Beta-lactamase (Salmonella choleraesuis (strain SC-B67), UniProt Q5J463)
[5] = molecular target: T2, Zinc finger protein mex-5 (Caenorhabditis elegans, UniProt Q9XUB2); experiment: MEX-5/TCR-2 RNA interaction inhibitors, dose response, biochemical, C. elegans, fluorescence polarization (AID 1960)
T2 sequence (Q9XUB2 whole entry): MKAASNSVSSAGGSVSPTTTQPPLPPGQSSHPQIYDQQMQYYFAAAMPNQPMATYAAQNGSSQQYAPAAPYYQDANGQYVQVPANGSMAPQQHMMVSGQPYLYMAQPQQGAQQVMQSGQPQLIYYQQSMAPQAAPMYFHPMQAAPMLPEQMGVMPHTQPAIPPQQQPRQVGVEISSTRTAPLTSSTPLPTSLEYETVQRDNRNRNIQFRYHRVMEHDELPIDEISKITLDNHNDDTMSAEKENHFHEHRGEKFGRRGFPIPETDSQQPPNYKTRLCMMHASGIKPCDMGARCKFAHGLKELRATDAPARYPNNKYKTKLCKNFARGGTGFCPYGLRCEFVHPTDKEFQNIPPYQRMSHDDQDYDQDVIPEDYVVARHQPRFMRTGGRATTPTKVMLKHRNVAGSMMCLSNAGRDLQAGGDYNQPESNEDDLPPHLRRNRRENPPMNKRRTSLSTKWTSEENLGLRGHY

[6] = molecular target: T3, RNA-binding protein pos-1 (Caenorhabditis elegans, UniProt G5EF15); experiment: inhibitors of POS-1/mex-3 RNA binding, dose response, biochemical, fluorescence polarization (AID 1964);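 also: purified POS-1 fused to maltose binding protein made in E. coli; potency of compounds blocking POS-1 binding to fluorescent RNA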
T3 sequence (G5EF15 whole entry): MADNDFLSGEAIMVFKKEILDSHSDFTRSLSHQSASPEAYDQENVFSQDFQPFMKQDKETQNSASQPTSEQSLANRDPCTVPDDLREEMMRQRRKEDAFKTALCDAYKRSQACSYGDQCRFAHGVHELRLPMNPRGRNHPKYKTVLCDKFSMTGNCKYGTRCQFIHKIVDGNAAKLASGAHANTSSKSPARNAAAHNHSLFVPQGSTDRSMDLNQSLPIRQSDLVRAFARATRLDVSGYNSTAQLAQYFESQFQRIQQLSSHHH

Beta-lactamase [7] = molecular target: Beta-lactamase (Pseudomonas aeruginosa, UniProt Q79MP6);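 also: biochemical dose-response test of metallo-beta-lactamase enzyme inhibition, read out by epi-absorbance; purified recombinant IMP-1 metallo-beta-lactamase with nitrocefin as substrate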
Keap1/Nrf2 = Keap1/Nrf2 (Homo sapiens, UniProt Q14145); experiment: Keap1-Nrf2 protein-protein interaction inhibitors, dose response, biochemical, fluorescence polarization, cherry-picked samples (AID 588683)
Keap1/Nrf2, sequence (Q16236 whole entry): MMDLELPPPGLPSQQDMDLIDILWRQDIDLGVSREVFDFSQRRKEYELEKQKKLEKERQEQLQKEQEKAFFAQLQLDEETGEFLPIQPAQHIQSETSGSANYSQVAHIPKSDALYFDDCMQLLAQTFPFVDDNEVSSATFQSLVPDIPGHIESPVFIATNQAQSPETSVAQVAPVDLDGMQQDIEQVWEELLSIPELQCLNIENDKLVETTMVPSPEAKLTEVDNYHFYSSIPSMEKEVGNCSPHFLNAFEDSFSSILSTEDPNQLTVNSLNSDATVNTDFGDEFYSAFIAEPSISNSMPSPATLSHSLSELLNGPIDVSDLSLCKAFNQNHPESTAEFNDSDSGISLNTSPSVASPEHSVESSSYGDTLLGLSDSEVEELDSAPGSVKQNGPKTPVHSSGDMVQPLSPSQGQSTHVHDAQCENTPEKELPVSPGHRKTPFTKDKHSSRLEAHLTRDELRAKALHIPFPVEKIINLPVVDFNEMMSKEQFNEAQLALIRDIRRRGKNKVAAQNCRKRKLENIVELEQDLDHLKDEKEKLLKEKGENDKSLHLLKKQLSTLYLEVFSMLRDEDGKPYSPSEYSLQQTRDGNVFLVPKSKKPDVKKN
Keap1/Nrf2, sequence (Q14145 whole entry): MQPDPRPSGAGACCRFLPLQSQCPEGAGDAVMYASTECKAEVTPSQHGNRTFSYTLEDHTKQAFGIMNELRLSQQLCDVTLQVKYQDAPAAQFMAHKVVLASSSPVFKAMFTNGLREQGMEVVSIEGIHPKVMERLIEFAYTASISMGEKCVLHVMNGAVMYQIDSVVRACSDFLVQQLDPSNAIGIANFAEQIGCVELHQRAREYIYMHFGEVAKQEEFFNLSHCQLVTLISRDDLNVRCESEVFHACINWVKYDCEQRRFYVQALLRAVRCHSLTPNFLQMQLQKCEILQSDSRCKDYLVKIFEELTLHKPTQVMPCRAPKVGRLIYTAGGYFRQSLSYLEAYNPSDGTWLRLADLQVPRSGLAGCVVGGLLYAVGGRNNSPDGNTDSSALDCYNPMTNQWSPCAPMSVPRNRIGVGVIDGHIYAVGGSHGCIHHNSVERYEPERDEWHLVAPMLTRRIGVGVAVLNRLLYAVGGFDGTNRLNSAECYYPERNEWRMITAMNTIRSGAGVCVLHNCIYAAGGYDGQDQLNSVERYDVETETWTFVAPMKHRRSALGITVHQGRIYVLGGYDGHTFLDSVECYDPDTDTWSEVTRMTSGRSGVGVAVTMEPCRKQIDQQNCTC

Cytochrome P450 2C9 = Cytochrome P450 2C9 (Homo sapiens, UniProt P11712)
Cytochrome P450 2C9, sequence (P11712 whole entry): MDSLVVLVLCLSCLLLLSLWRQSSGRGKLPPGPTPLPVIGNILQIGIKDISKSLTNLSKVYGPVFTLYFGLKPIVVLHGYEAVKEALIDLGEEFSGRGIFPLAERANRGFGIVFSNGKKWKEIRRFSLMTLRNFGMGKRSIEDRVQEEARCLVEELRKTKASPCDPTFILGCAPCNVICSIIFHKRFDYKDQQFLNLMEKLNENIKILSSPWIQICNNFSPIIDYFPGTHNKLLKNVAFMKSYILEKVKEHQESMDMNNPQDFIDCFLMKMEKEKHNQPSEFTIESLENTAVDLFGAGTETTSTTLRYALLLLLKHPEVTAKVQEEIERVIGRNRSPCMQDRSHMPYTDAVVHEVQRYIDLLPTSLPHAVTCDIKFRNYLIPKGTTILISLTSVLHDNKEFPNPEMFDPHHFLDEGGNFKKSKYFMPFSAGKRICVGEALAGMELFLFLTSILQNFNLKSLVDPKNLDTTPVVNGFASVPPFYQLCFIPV

Cytochrome P450 3A4 = Cytochrome P450 3A4 (Homo sapiens, UniProt P08684);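 also: CYP3A4 tested as one member of a cytochrome P450 panel screen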
Cytochrome P450 3A4, sequence (P08684 whole entry): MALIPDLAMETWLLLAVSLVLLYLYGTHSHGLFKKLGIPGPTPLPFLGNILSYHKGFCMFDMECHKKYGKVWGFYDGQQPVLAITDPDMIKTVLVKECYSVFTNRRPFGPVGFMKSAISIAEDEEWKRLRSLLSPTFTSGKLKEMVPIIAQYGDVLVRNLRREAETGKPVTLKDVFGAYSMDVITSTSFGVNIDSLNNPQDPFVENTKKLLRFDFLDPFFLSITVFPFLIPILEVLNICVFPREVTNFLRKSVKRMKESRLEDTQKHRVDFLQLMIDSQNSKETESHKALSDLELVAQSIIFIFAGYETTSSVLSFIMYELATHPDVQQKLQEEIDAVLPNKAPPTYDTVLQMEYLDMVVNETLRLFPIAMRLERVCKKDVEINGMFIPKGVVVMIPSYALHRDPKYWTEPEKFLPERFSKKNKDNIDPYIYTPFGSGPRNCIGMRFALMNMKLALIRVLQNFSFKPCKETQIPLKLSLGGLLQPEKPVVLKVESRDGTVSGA

Cytochrome P450 1A2 [8] = molecular target: T4, Cytochrome P450 1A2 (Homo sapiens, UniProt P05177);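 also: PubChem cytochrome P450 panel assay, CYP1A2 panel member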
T4 sequence (P05177 whole entry): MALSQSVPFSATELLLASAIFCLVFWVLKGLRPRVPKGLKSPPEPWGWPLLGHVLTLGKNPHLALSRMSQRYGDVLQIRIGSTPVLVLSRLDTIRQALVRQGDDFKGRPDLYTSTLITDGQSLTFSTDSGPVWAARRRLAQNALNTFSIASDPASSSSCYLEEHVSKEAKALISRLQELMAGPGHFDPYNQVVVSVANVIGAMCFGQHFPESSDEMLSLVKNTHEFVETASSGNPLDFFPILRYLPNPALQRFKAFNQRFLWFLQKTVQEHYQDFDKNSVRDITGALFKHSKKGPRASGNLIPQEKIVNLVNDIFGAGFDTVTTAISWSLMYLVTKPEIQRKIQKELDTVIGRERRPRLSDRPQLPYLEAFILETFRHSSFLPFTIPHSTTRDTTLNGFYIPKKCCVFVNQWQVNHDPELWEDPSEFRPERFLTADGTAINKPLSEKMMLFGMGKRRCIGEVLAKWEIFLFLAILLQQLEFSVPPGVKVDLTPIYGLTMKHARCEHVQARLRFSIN

HeLa [9] = experiment: HeLa cell cytotoxicity, dose response, cytotoxicity control for MITF activator project, CellTiter-Glo luminescence, cherry-pick samples (AID 540259); type: functional, cell-based; details: Homo sapiens
[10] = Luminescence Cell-Based Dose Confirmation HTS to Identify Inhibitors of Platelet Dense Granule Release. [Related pubchem assays: 1663 (Primary HTS), 1678 (Summary of Project)]; type: functional
[11] = molecular target: Luciferin 4-monooxygenase (Photinus pyralis, UniProt P08659); experiment: firefly luciferase enzyme inhibitors, dose response, biochemical, luminescence (AID 1891)
H4 = experiment: Luminescence Cell-Based Dose Response HTS to Identify Activators of 5'UTR Stem-Loop Driven Prion Protein mRNA Translation in H4 Neuroglioblastoma Cells. [Related pubchem assays: 1829 (Project Summary), 1814 (Primary HTS)]; type: functional; details: Homo sapiens
[12] = Luminescence Cell-Based Dose Response HTS to Identify Activators of Luciferase Translation or Activity in H4 […] Cells. [Related pubchem assays: 1829 (Project Summary), 1814 (Primary HTS)]; type: functional
Cytochrome P450 1A2 [13] = molecular target: T4, Cytochrome P450 1A2; remark: listed apart in the source
Cytochrome P450 2C19 = Cytochrome P450 2C19 (Homo sapiens, UniProt P33261); experiment: Cytochrome panel assay with activity outcomes. Panel member name: p450-cyp2c19 Compounds with AC50 equal or less than 10 uM are considered active; type: functional
Cytochrome P450 2C19, sequence (P33261 whole entry, the tested form may be a part): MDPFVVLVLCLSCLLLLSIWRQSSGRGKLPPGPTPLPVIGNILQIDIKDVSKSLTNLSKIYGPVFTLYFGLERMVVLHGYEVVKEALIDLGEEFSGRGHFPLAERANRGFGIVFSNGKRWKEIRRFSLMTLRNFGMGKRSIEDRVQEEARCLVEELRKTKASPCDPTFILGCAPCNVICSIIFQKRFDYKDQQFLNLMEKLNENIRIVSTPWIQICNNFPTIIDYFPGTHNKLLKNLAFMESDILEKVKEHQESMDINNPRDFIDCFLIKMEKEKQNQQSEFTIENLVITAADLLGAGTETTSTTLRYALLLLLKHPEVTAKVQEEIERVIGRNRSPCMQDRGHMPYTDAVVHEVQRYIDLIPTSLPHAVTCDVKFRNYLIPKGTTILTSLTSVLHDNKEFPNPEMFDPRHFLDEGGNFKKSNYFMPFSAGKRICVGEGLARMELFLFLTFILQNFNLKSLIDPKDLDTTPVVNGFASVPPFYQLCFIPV

[14] = molecular target: Nucleotide-binding oligomerization domain-containing protein 2 (Homo sapiens, UniProt Q9HC29); experiment: NOD2 signaling inhibitors, cell-based, luminescence, uHTS, HEK293 (AID 1566); type: functional
Nucleotide-binding oligomerization domain-containing protein 2, sequence (Q9HC29 whole entry, the tested form may be a part): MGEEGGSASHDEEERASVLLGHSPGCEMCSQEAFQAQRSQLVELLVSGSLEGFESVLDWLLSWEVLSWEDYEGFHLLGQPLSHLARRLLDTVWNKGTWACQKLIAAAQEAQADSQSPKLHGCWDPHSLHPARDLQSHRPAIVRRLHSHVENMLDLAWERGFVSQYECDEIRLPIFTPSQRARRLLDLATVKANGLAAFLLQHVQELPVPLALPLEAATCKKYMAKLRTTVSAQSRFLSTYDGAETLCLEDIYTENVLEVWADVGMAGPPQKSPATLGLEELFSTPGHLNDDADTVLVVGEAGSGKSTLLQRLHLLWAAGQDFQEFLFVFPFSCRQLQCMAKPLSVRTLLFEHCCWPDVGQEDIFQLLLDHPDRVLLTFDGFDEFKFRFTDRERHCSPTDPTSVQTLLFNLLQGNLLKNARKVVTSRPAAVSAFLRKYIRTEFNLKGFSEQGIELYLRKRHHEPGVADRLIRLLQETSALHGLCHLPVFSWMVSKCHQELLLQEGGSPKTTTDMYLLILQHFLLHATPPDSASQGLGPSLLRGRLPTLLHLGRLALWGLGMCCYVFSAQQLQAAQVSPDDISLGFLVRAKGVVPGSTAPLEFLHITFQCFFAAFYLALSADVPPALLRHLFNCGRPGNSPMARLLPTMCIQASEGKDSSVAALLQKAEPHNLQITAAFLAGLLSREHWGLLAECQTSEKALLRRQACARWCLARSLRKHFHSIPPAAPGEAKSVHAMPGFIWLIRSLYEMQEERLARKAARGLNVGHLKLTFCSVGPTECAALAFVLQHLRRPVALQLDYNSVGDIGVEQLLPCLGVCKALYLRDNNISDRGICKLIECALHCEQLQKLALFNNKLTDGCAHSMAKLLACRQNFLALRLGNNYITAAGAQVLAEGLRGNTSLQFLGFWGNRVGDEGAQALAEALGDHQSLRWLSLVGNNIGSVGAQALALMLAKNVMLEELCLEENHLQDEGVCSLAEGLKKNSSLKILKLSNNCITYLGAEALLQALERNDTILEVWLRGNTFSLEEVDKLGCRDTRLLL

[15] = Luminescence Cell-Based Dose Response HTS to Identify Inhibitors of 5'UTR Stem-Loop Driven Prion Protein mRNA Translation in H4 Neuroglioblastoma Cells. [Related pubchem assays: 1827 (Project Summary), 1813 (Primary HTS)]; type: functional
[16] = inhibitors of firefly luciferase expression or activity, dose response, H4 neuroglioma cells, luminescence (AID 1990); type: functional, cell-based
HEK293 [17] = experiment: cells; type: functional, cell-based; details: Homo sapiens; remark: listed apart in the source
HEK293 [18] = experiment: NOD2 signaling inhibitors in MDP-stimulated cells, cell-based, uHTS, luminescence (AID 2001); type: functional; details: Homo sapiens
HEK293 [19] = experiment: NOD1 signaling inhibitors, primary screen, cell-based, luminescence, uHTS (AID 1578); type: functional; details: Homo sapiens
HEK293 [20] = experiment: cells; type: functional, cell-based; details: Homo sapiens; remark: listed apart in the source
[21] = inhibitors of SNCA 5'UTR-driven reporter translation, confirmation, H4 neuroglioma cells, luminescence (AID 1988); type: functional, cell-based
HEK293 [22] = experiment: cells; type: functional, cell-based; details: Homo sapiens; remark: listed apart in the source
Cytochrome P450 2D6 = Cytochrome P450 2D6 (Homo sapiens, UniProt P10635);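 also: CYP2D6 member of a cytochrome P450 panel assay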
CAAX prenyl protease 2 [23] = molecular target: CAAX prenyl protease 2 (Saccharomyces cerevisiae S288c, UniProt Q03530); type: biochemical
CAAX prenyl protease 2 (Saccharomyces cerevisiae S288c, UniProt Q03530), sequence (Q03530 whole entry): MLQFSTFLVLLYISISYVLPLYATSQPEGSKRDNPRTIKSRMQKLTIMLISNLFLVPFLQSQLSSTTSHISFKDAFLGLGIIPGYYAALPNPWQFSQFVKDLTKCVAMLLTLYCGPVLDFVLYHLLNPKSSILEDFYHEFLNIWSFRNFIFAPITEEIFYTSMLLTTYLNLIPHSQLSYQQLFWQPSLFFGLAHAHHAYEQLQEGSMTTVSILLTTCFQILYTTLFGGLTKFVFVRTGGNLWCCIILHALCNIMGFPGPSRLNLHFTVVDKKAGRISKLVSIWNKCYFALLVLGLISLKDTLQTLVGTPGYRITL

CAAX prenyl protease 1 = CAAX prenyl protease 1 (Saccharomyces cerevisiae S288c, UniProt P47154); experiment: Ste24 protease inhibitors, dose response, biochemical, S. cerevisiae, plate reader, cherry-pick (AID 488815)
CAAX prenyl protease 1, sequence (P47154 whole entry): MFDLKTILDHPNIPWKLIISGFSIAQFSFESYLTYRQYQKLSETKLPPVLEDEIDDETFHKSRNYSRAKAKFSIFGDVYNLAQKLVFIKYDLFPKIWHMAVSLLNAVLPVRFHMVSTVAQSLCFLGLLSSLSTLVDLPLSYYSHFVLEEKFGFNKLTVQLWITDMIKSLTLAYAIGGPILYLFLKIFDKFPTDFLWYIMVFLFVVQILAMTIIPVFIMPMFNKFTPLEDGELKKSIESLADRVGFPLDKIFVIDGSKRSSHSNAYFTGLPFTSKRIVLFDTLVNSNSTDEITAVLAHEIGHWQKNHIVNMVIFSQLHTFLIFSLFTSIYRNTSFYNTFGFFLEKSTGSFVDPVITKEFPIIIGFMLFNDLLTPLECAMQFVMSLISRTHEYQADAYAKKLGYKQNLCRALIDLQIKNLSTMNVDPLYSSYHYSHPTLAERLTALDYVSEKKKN

CAAX prenyl protease 2 [24] = molecular target: CAAX prenyl protease 2 (Homo sapiens, UniProt Q9Y256); experiment: human Rce1 protease inhibitors, dose response, biochemical, yeast membranes, quenched-peptide fluorescence, cherry-pick (AID 588849)
Trypsin = Trypsin (Sus scrofa, UniProt P00761); experiment: porcine trypsin inhibitors, dose response, selectivity assay for Rce1 protease inhibitor project, biochemical, quenched peptide fluorescence, cherry-pick (AID 488789)
ORF 73 = ORF 73 (Human herpesvirus 8, UniProt O40947); experiment: inhibitors of C-LANA binding to LBS DNA, dose response, biochemical, fluorescence polarization, cherry-picked samples (AID 504725); parameters: species or system Human gammaherpesvirus 8;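 also: fluorescence polarization of a labeled DNA duplex reporting LANA DNA binding; potency is for inhibitors that block LANA binding to the DNA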
HeLa [25] = experiment: HeLa cell cytotoxicity, dose response, cytotoxicity control, 24 h, cherry-picked samples (AID 504726); type: functional, cell-based; details: Homo sapiens;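 also: potency for cytotoxicity as loss of luminescence signal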

With `CC(=O)NNc1ncnc2ccccc12` the IC50 (HEK293 [1]) was > 67.5 µM (inactive) and the IC50 [2] was > 67.5 µM (inactive).
For `CN1C(=O)c2cccc3c(N)ccc(c23)C1=O`, the AC50 [3] was 1.59 µM (active), the IC50 (Beta-lactamase [4]) was 5.56 µM (active) and the EC50 [5] was 0.116 µM (inconclusive). For the same compound, the EC50 [6] was 0.363 µM (inconclusive), the IC50 (Beta-lactamase [7]) was 10.5 µM (inactive) and the AC50 (Keap1/Nrf2) was 0.839 µM (active).
In the case of `COc1ccc(-n2c(=O)c(-c3ccccc3)nc3cnc(N4CCN(C)CC4)nc32)cc1`, the AC50 (Cytochrome P450 2C9) is reported as 31.6 µM (inconclusive), the AC50 (Cytochrome P450 3A4) is reported as “inconclusive” and the AC50 (Cytochrome P450 1A2 [8]) is reported as 20 µM (inconclusive).
In the case of `COc1ccccc1NC(=O)Nc1ccc(C(=O)N2CCCCC2)cc1`, the AC50 (HeLa [9]) is reported as 67 µM (active), the EC50 [10] is reported as 6.67 µM (active) and the EC50 [11] is reported as 2.01 µM (active).
In the case of `CC1(C)Nc2ccccc2C(=O)N1c1ccc(Br)cc1`, the IC50 (HEK293 [1]) is reported as > 67.5 µM (inactive) and the IC50 [2] is reported as > 67.5 µM (inactive).
For `CCn1c(C(=O)OC)cc2c1ccn2-c1ccc(F)cc1`, the AC50 (HeLa [9]) was 91.9 µM (active), the EC50 (H4) was > 120 µM (not active) and the EC50 [12] was 69.7 µM (active).
In the case of `O=C(c1ccc2c(c1)N(Cc1ccccc1)C(=O)CS2)N1CCOCC1`, the AC50 (Cytochrome P450 1A2 [13]) is reported as “inconclusive”, the AC50 (Cytochrome P450 2C19; read-out: AC50) is reported as 28.2 µM (inconclusive) and the AC50 (Cytochrome P450 2C9) is reported as 14.1 µM (inconclusive).
With `CC(C)COc1ccc(C(=O)Nc2sc3c(c2C(=O)O)CC(C)(C)OC3)cc1` the EC50 [14] was 0.22 µM (active), the EC50 [15] was 11.2 µM (active) and the EC50 [16] was 11.3 µM (active). The IC50 (HEK293 [17]) was > 20 µM (inactive), the IC50 (HEK293 [18]) was 5.19 µM (active) and the EC50 (HEK293 [19]) was 2.59 µM (active). The IC50 (HEK293 [20]) was > 20 µM (inactive), the EC50 [21] was > 120 µM (not active) and the IC50 (HEK293 [22]) was 12.6 µM (active).
For `O=C(O)c1cc(/N=N\c2ccc(S(=O)(=O)Nc3ccccn3)cc2)ccc1O`, the AC50 (Cytochrome P450 1A2 [13]) was “inactive”, the AC50 (Cytochrome P450 2C19) was “inactive” and the AC50 (Cytochrome P450 2D6) was “inactive”. For the same compound, the AC50 (Cytochrome P450 2C9) was 7.94 µM (inconclusive) and the AC50 (Cytochrome P450 3A4) was “inactive”.
For `CN(C)C(=O)COc1ccc2ccc(=O)oc2c1`, the AC50 (CAAX prenyl protease 2 [23]) was 41.5 µM (active) and the AC50 (CAAX prenyl protease 1) was 6.76 µM (active).
With `COCc1cc(C)n(CC(=O)NCc2ccccc2)c(=O)c1C#N` the AC50 (CAAX prenyl protease 2 [24]) was 25.8 µM (active) and the AC50 (CAAX prenyl protease 1) was 7.22 µM (active).
With `CS(=O)(=O)Nc1ccc(C2=NN(S(C)(=O)=O)C(c3cccs3)C2)cc1` (stereo not given) the AC50 (CAAX prenyl protease 2 [24]) was 2.38 µM (active), the AC50 (Trypsin) was 4.41 µM (active) and the AC50 (CAAX prenyl protease 2 [23]) was 6.27 µM (active).
In the case of `Cc1cc(/C=C2\SC(=S)N(C)C2=O)c(C)n1-c1cccc(O)c1`, the EC50 [14] is reported as 1.1 µM (active), the IC50 (HEK293 [17]) is reported as 9.54 µM (active) and the IC50 (HEK293 [18]) is reported as 0.695 µM (active). For the same compound, the EC50 (HEK293 [19]) was 9.29 µM (active), the IC50 (HEK293 [20]) was 4.55 µM (active) and the IC50 (HEK293 [22]) was > 20 µM (inactive).
For `CN1C(=O)C(=N)c2c3ccccc3c(O)c3c(Br)ccc1c23`, the AC50 [3] was 0.519 µM (active), the AC50 (ORF 73) was 2.73 µM (active) and the AC50 (HeLa [25]) was 303 µM (active). The EC50 [5] was < 0.06 µM (inconclusive), the EC50 [6] was 0.66 µM (inconclusive) and the AC50 (Keap1/Nrf2) was 0.54 µM (active).
